The values that follow come from ChEMBL document CHEMBL1156974, “Design, synthesis and in vitro/in vivo evaluation of orally bioavailable prodrugs of a catechol-O-methyltransferase inhibitor” (Bioorg Med Chem Lett, 2010).

A short description of data set [1]: Uncoupling activity in Wistar rat mitochondria assessed as increase in oxygen consumption by mitochondrial respiration assay relative to 10 uM dinitrophenol. The data set is classed as ADME.
The subject of another data set is Serum. The data set is described as follows: Metabolic stability in human serum up to 8 hrs by HPLC analysis. The data set is classed as ADME, cell-free.
Data set [2] in a line: Aqueous solubility in phosphate buffer at pH 7.4 by HPLC analysis. The data set is classed as physicochemical.
Data set [3] is described as follows: Chemical stability in acetate buffer assessed as hydrolysis half life at pH 4.0 by HPLC analysis. The data set is classed as physicochemical.
The nature of data set [4]: Chemical stability in phosphate buffer at pH 7.4 up to 1 week by HPLC analysis. Particulars: pH 7.4, 168 h. The data set is classed as physicochemical.
The nature of data set [5]: Distribution coefficient, log D at pH 7.4 by HPLC analysis. It counts as physicochemical. The conditions noted are these: octanol/water.
The target of data set [6] is T1, Catechol O-methyltransferase (Homo sapiens, UniProt P21964).
T1 sequence (P21964 whole entry): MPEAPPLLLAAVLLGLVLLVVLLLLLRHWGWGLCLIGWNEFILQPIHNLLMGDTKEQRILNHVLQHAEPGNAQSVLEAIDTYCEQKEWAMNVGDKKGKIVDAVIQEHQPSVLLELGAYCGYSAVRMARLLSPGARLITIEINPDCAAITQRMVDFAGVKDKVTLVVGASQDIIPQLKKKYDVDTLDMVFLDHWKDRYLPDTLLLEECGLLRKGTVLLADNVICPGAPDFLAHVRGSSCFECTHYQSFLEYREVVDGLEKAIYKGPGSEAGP
Description: Inhibition of human recombinant COMT by microplate screening assay.

A short description of data set [7]: Aqueous solubility in HCl buffer at pH 1.2 by HPLC analysis. The data set is classed as physicochemical.
A short description of data set [8]: Half life in rat liver homogenate by HPLC analysis. The data set is classed as ADME, tissue-based.
Data set [9] in a line: Aqueous solubility in acetate buffer at pH 4.0 by HPLC analysis. It counts as physicochemical.
The nature of data set [10]: Chemical stability in […] up to 1 week by HPLC analysis. The data set is classed as physicochemical. Particulars: pH 4, 168 h.
Data set [11] can be described thus: Chemical stability in phosphate buffer assessed as hydrolysis half life at pH 7.4 by HPLC analysis. It counts as physicochemical.
The nature of data set [12]: Chemical stability in fasted state simulated intestinal fluid assessed as hydrolysis half life by HPLC analysis. The data set is classed as physicochemical.
Another data set relates to Rattus norvegicus. The data set is described as follows: AUC in Wistar rat at 10 umol/kg, po up to 6 hrs by LC/MS/MS relative to 3-Chloro-5,6-dihydroxy-7-nitro-benzo[b]thiophene-2-carboxylic acid. The data set is classed as ADME, organism-based, Plasma. The conditions noted are these: in vivo.
Data set [13] is described as follows: Half life in human serum by HPLC analysis. It counts as ADME, cell-free.
A short description of data set [14]: Chemical stability in fasted state simulated intestinal fluid up to 8 hrs by HPLC analysis. It counts as physicochemical. Particulars: simulated gi fluid.
The nature of data set [15]: Distribution coefficient, log D at pH 4.0 by HPLC analysis. The conditions noted are these: octanol/water. It counts as physicochemical.
Data set [16] is described as follows: Distribution coefficient, log D at pH 1.2 by HPLC analysis. The data set is classed as physicochemical. Particulars: octanol/water.
The mark [17] stands for this setting: buffer, BLD = below limit of detection.
The mark [18] stands for this setting: acetate buffer, read-out: solubility.
[19] abbreviates: HCl buffer, read-out: solubility.

Converted amounts (≈) assume the structure as drawn.

Take `CCCOC(=O)c1sc2c([N+](=O)[O-])c(O)c(O)cc2c1Cl`: the Uncoupling concentration in [1] was > 5 µM. Besides, the Stability entry (with Serum; in data set [4]) was “Stable” each time. For the same compound, the solubility (as a rule, the concentration that dissolves in the medium under given conditions) in data set [2] was 10.8 µg/mL (≈ 32.6 µM); in data set [7] (setting [17]) it was “BLD”; in data set [9] (setting [18]), 0.5 µg/mL (≈ 1.51 µM). Also, the results for the half-life in data set [3] and in [8] were 744 h and 0.34 h, respectively. For the same compound, the pH-dependent lipophilicity (logD) (as a rule, lipophilicity at a set pH, counting ionised and neutral species) in [5] (read-out: logD) amounted to 2.45. In addition, in data set [6], the Ki – broadly, a measure of affinity in units of concentration, obtained from inhibition or displacement – amounted to 9.2 nM.

As to `COC(=O)c1sc2c([N+](=O)[O-])c(O)c(O)cc2c1Cl`, in [1], the Uncoupling concentration was > 10 µM. Besides, the Stability result (in the data set with Serum; in [4]; in data set [10]) was “Stable” each time. In addition, the solubility in data set [2] amounted to 11.4 µg/mL (≈ 37.5 µM); in [7] (setting [19]) it was 0.7 µg/mL (≈ 2.31 µM); in data set [9] (setting [18]), 4.2 µg/mL (≈ 13.8 µM). Further, the pH-dependent lipophilicity (logD) in data set [5] (read-out: logD) came to 1.51. Further, the inhibition constant Ki in [6] was 2.2 nM. In addition, in data set [8], the half-life – broadly, how long it takes for the measured level to halve – was determined as 0.33 h.

As for `CC(C)C(N)C(=O)OCOC(=O)c1sc2c([N+](=O)[O-])c(O)c(O)cc2c1Cl` (stereo unspecified), in data set [1], the Uncoupling concentration turned out to be 25 µM. Also, the half-life in [11] is 2 h; in data set [12] it was 31.7 h; in [3], 40.8 h; in [8] it was ≤ 0.0167 h; in data set [13], 0.06 h. For the same compound, in the data set with Rattus norvegicus, the “fold change (FC)” value is reported as 0.4. Also, the solubility in data set [2] is 10 µg/mL (≈ 23.9 µM); in [7] (setting [19]), 6600 µg/mL (≈ 15800 µM); in data set [9] (setting [18]), 17.5 µg/mL (≈ 41.8 µM). The inhibition constant Ki in data set [6] was determined as 6 nM.

Turning to `O=C(OCc1coc(=O)o1)c1sc2c([N+](=O)[O-])c(O)c(O)cc2c1Cl`, the half-life was 11.7 h in data set [11]; 167 h in data set [12]; 93.6 h in data set [3]; ≤ 0.0167 h in [8]; 0.03 h in data set [13]. The “fold change (FC)” value in the data set with Rattus norvegicus worked out at 2.1. Further, the inhibition constant Ki in data set [6] came to 1.6 nM.

`CCCCOC(=O)c1sc2c([N+](=O)[O-])c(O)c(O)cc2c1Cl`: the Uncoupling concentration in data set [1] is > 2.5 µM. The Stability result (in the data set on Serum; in data set [4]) was “Stable” throughout. Further, the solubility in [2] was 3.2 µg/mL (≈ 9.25 µM); in [7] (setting [17]), “BLD”; in data set [9] (setting [18]), 0.7 µg/mL (≈ 2.02 µM). For the same compound, in data set [5] (BLD = below limit of detection), the logD result was “BLD”. The inhibitory constant (Ki) in data set [6] amounted to 1.3 nM. In data set [8], this compound yielded a half-life of 0.698 h.

Take `CCCC(=O)OC(C)OC(=O)c1sc2c([N+](=O)[O-])c(O)c(O)cc2c1Cl` (stereo unspecified): the Uncoupling concentration in data set [1] is > 50 µM. Further, the half-life in [11] is 4.5 h; in data set [8], ≤ 0.0167 h; in data set [13], 25 h. In addition, the solubility in data set [2] was 60.4 µg/mL (≈ 150 µM); in [7] (setting [19]), 0.5 µg/mL (≈ 1.24 µM); in data set [9] (setting [18]) it was 4.6 µg/mL (≈ 11.4 µM). Moreover, the log distribution coefficient (logD) in data set [5] (read-out: logD) is 2.16. Moreover, the inhibition constant (Ki) in [6] was 16.6 nM.

For the compound `CC(C)C(=O)OCOC(=O)c1sc2c([N+](=O)[O-])c(O)c(O)cc2c1Cl`, the Uncoupling concentration in [1] was > 50 µM. Also, the half-life in [11] was 7.6 h; in [3], 202 h; in data set [8], ≤ 0.0167 h; in data set [13], 5.1 h. Besides, the “fold change (FC)” value in the data set with Rattus norvegicus is given as 2. Moreover, the results for the solubility in data set [2], in [7] (setting [17]) and in data set [9] (setting [17]) were ≥ 200 µg/mL, “BLD” and “BLD”, respectively. In addition, the logD in [5] (read-out: logD) stood at 2.91. Moreover, the inhibition constant Ki in data set [6] was 17 nM. For the same compound, in data set [14], the Stability entry is recorded as “Stable”.

As to `CC(C)OC(=O)c1sc2c([N+](=O)[O-])c(O)c(O)cc2c1Cl`, in [1], the Uncoupling concentration is > 1 µM. For the same compound, the Stability result (in the data set on Serum; in data set [4]) was “Stable” each time. The solubility is 18.7 µg/mL (≈ 56.4 µM) in data set [2], “BLD” in data set [7] (setting [17]) and 0.5 µg/mL (≈ 1.51 µM) in data set [9] (setting [18]). Further, the half-life in data set [3] is 552 h; in [8], 2.18 h. Also, the pH-dependent lipophilicity (logD) in data set [5] (read-out: logD) is 1.14. Further, the Ki in data set [6] was 1.1 nM.

On to `CCCC(=O)OCOC(=O)c1sc2c([N+](=O)[O-])c(O)c(O)cc2c1Cl`, for which the Uncoupling concentration in data set [1] was > 50 µM. Moreover, the half-life in data set [11] was 2.5 h; in [8], ≤ 0.0167 h; in data set [13], 5.3 h. Also, the Ki in data set [6] came out at 10.6 nM.

For the compound `O=C(OCc1ccccc1)c1sc2c([N+](=O)[O-])c(O)c(O)cc2c1Cl`, in data set [1], the Uncoupling concentration was > 10 µM. Also, the Stability entry in the data set on Serum is listed as “Stable”. The half-life is 21.6 h in [11] and 0.865 h in [8]. Also, the solubility in [2] is 6.9 µg/mL (≈ 18.2 µM); in [7] (setting [17]), “BLD”; in [9] (setting [17]) it was “BLD”. The logD entry in data set [5] (BLD = below limit of detection) was “BLD”. The Ki in [6] was 10.2 nM.

For the compound `CC(OC(=O)c1sc2c([N+](=O)[O-])c(O)c(O)cc2c1Cl)OC(=O)C(C)C` (stereo unspecified), in data set [1], the Uncoupling concentration was > 50 µM. Also, the half-life was 48 h in data set [11], ≤ 0.0167 h in data set [8] and 32.3 h in data set [13]. Moreover, in the data set on Rattus norvegicus, the “fold change (FC)” value came to 0.5. Further, the solubility in data set [2] is 258 µg/mL (≈ 639 µM); in data set [7] (setting [17]), “BLD”; in data set [9] (setting [18]), 0.6 µg/mL (≈ 1.49 µM). In [5] (read-out: logD), the logD stood at 3.02. Further, the inhibition constant Ki in data set [6] is 17 nM. Besides, the Stability entry in data set [14] is on record as “Stable”.

`O=C(O)c1sc2c([N+](=O)[O-])c(O)c(O)cc2c1Cl`: the Uncoupling concentration in data set [1] is > 50 µM. The log distribution coefficient (logD) in data set [15] came to 1.8; in [5] (read-out: logD), 0.06; in data set [16] it was 3.64. Moreover, the solubility in [2] is 15000 µg/mL (≈ 51800 µM); in data set [7] (setting [19]) it was 3.9 µg/mL (≈ 13.5 µM); in data set [9] (setting [18]) it was 53 µg/mL (≈ 183 µM). In addition, the Stability entry in [14] was “Stable”.
